Reference: PubChem BioAssay AID1963843 (Molecular Pharmacology Branch, DTP, NCI, 2024)

System: 616215-338-R-J1-PDC complex spheroid viability
Experiment: Anticancer human tumor 616215-338-R-J1-PDC patient-derived colon adenocarcinoma cell line growth inhibition [POLQ]
Settings: for IC50: curve of first compound; for viability, T/C: stronger effect = lower value
Procedure: Multicellular complex tumor spheroid response to Polymerase (POL) inhibitors (novobiocin, ART-558, RP6685) in combination with a variety of drugs and investigational agents in selected tumor cell lines
The POL inhibitors (novobiocin, ART-558, and RP6685) were evaluated both individually and in combination with standard of care and investigational anticancer small molecules within a complex spheroid model of solid tumors. . Complex spheroids include a stromal component modeled by human endothelial cells (HUVEC) and fibroblasts modeled by human mesenchymal stem cells (MSCs). The concentration ranges selected for each drug and investigational agent were based upon clinically achievable concentrations if the clinical Cmax of the agent was known.
Compounds. The drugs and investigational agents: novobiocin (NSC847541), ART-558 (NSC835418), RP-6685 (NSC848927), peposertib (NSC802822), ceralasertib (NSC780249), elimusertib (NSC800525), camonsertib (NSC841442), AZD-1390 (NSC803789), olaparib (NSC753686), talazoparib (NSC767125), rucaparib (NSC756644), sotorasib (NSC818433), MRTX-1133 (NSC836407), SN-38 (NSC673596), topotecan (NSC609699), epotoside (NSC141540), doxorubicin (NSC123127), gemcitabine (NSC613327), 5-fluorouracil (NSC19893), paclitaxel (NSC125973), vemurafenib (NSC761431), MSA-2 (NSC828583), SN-011 (NSC837082), adavosertib (NSC754352), prexasertib (NSC758257), carboplatin (NSC241240) and oxaliplatin (NSC266046), were obtained from the National Cancer Institute (NCI) Developmental Therapeutics Program Chemical Repository (21). The FDA-approved anticancer drug set is available from the Developmental Therapeutics Program at https://dtp.cancer.gov/organization/dscb/obtaining/. […] The stock solutions were prepared in dimethyl sulfoxide (DMSO, Sigma-Aldrich, St. Louis, MO, cat. D2650), except for the platinum compounds which were prepared in saline (Quality Biological, Gaithersburg, MD, cat. 114-055-101), at 800-fold the tested concentration and stored at -70 degrees C prior to their use. All drugs and investigational agents were tested over a range starting from a high concentration at or near the clinical Cmax and decreasing in half-log increments. If the clinical Cmax for an agent had not been determined, the highest concentration tested was 10 microM, except for SN-38, which was tested at a high concentration of 1 microM.
Cell Culture. All cells were maintained in an incubator at 37 degrees C and 5% CO2 with 95% humidity. The PDC lines were cultured according to standard operating procedures established by the NCI PDMR (https://pdmr.cancer.gov). Table 3 of the manuscript, lists the cell lines along with the number of the three cell types plated to form the mct-spheroids and media for tumor cell growth. After thawing, all PDC lines, except 997537-175-T-J1-PDC and 415267-285-R-J2-PDC, were cultured in Matrigel-coated flasks prepared with a working solution of 1X Ham's F-12 nutrient mix, without supplementation (Thermo Fisher Scientific, cat. 11765054), 100 U/mL penicillin-streptomycin (Thermo Fisher Scientific, cat. 15140122), and 2.5% Matrigel (Corning Inc., Corning, NY, cat. 354248) for the first three passages. The two PDC lines 997537-175-T-J1-PDC and 415267-285-R-J2-PDC were cultured on uncoated flasks. The 857933-349-R-J2-PDC line was cultured in 6C/Colon 1B media containing advanced DMEM/F-12 (Thermo Fisher Scientific, cat. 12634028), 10 mM HEPES (Thermo Fisher Scientific, cat. 15630080), 1X GlutaMAX supplement (Thermo Fisher Scientific, cat. 35050061), 0.1 mg/mL primocin (InvivoGen, San Diego, CA, cat. ant-pm-2), 10% defined fetal bovine serum, heat inactivated (HyClone Laboratories Inc., Logan, UT, cat. SH30070.03HI), 50% L-WRN conditioned media (ATCC, cat. CRL-3276), 1.25 mM N-Acetyl-L-cysteine (Sigma-Aldrich, cat. A9165), 10 mM nicotinamide (Sigma-Aldrich, cat. N0636), 1X B-27 supplement (Thermo Fisher Scientific, cat. 17504044), 1X N-2 supplement (Thermo Fisher Scientific, cat. […]

[1] = second compound 0.0316 µM, first compound 0.00316 µM
[2] = second compound 0.0316 µM, first compound 0.01 µM
[3] = second compound 0.0316 µM, first compound 0.0316 µM
[4] = second compound 0.0316 µM, first compound 0.1 µM
[5] = second compound 0.0316 µM, first compound 0.316 µM
[6] = second compound 0.0316 µM, first compound 1 µM
[7] = second compound 0.1 µM, first compound 0.00316 µM
[8] = second compound 0.1 µM, first compound 0.01 µM
[9] = second compound 0.1 µM, first compound 0.0316 µM
[10] = second compound 0.1 µM, first compound 0.1 µM
[11] = second compound 0.1 µM, first compound 0.316 µM
[12] = second compound 0.1 µM, first compound 1 µM
[13] = second compound 0.316 µM, first compound 0.00316 µM
[14] = second compound 0.316 µM, first compound 0.01 µM
[15] = second compound 0.316 µM, first compound 0.0316 µM
[16] = second compound 0.316 µM, first compound 0.1 µM
[17] = second compound 0.316 µM, first compound 0.316 µM
[18] = second compound 0.316 µM, first compound 1 µM
[19] = second compound 1 µM, first compound 0.00316 µM
[20] = second compound 1 µM, first compound 0.01 µM
[21] = second compound 1 µM, first compound 0.0316 µM
[22] = second compound 1 µM, first compound 0.1 µM
[23] = second compound 1 µM, first compound 0.316 µM
[24] = second compound 1 µM, first compound 1 µM
[25] = second compound 3.16 µM, first compound 0.00316 µM
[26] = second compound 3.16 µM, first compound 0.01 µM
[27] = second compound 3.16 µM, first compound 0.0316 µM
[28] = second compound 3.16 µM, first compound 0.1 µM
[29] = second compound 3.16 µM, first compound 0.316 µM
[30] = second compound 3.16 µM, first compound 1 µM
[31] = second compound 10 µM, first compound 0.00316 µM
[32] = second compound 10 µM, first compound 0.01 µM
[33] = second compound 10 µM, first compound 0.0316 µM
[34] = second compound 10 µM, first compound 0.1 µM
[35] = second compound 10 µM, first compound 0.316 µM
[36] = second compound 10 µM, first compound 1 µM
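Also: spheroids exposed to compounds for one week before readout.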
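For viability, T/C in this document: percent viability relative to DMSO vehicle wells taken as 100%.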

CCc1c2c(nc3ccc(O)cc13)-c1cc3c(c(=O)n1C2)COC(=O)[C@]3(O)CC + Cc1cccc(N(C)C(=O)C2C(O)CCN2c2nc(C)cc(C(F)(F)F)c2C#N)c1
IC50 (second compound 0.0316 µM): 87.2 nM | IC50 (second compound 0.1 µM): 91.2 nM | IC50 (second compound 0.316 µM): 84.5 nM | IC50 (second compound 1 µM): 78.6 nM | IC50 (second compound 3.16 µM): 65.9 nM | IC50 (second compound 10 µM): 47.4 nM | viability, T/C [1]: 104% | viability, T/C [2]: 97% | viability, T/C [3]: 72.8% | viability, T/C [4]: 49.3% | viability, T/C [5]: 24.6% | viability, T/C [6]: 20.8% | viability, T/C [7]: 114% | viability, T/C [8]: 90.5% | viability, T/C [9]: 71.9% | viability, T/C [10]: 44.5% | viability, T/C [11]: 33.5% | viability, T/C [12]: 16.1% | viability, T/C [13]: 109% | viability, T/C [14]: 87.1% | viability, T/C [15]: 69.7% | viability, T/C [16]: 48.1% | viability, T/C [17]: 26.9% | viability, T/C [18]: 18.6% | viability, T/C [19]: 111% | viability, T/C [20]: 92.9% | viability, T/C [21]: 79.9% | viability, T/C [22]: 40.1% | viability, T/C [23]: 26% | viability, T/C [24]: 18.7% | viability, T/C [25]: 116% | viability, T/C [26]: 80.7% | viability, T/C [27]: 67.8% | viability, T/C [28]: 41.6% | viability, T/C [29]: 27.5% | viability, T/C [30]: 22.1% | viability, T/C [31]: 97.7% | viability, T/C [32]: 68.7% | viability, T/C [33]: 62.3% | viability, T/C [34]: 39% | viability, T/C [35]: 25% | viability, T/C [36]: 23.1%

COc1cc2cc(C(=O)CCC(=O)O)sc2cc1OC + Cc1cccc(N(C)C(=O)C2C(O)CCN2c2nc(C)cc(C(F)(F)F)c2C#N)c1
IC50 (second compound 0.0316 µM): > 10000 nM | IC50 (second compound 0.1 µM): > 10000 nM | IC50 (second compound 0.316 µM): > 10000 nM | IC50 (second compound 1 µM): > 10000 nM | IC50 (second compound 3.16 µM): > 10000 nM | IC50 (second compound 10 µM): > 10000 nM | viability, T/C [3]: 99.9% | viability, T/C [4]: 99.6% | viability, T/C [5]: 92% | viability, T/C [6]: 104% | viability, T/C (second compound 0.0316 µM, first compound 3.16 µM): 117% | viability, T/C (second compound 0.0316 µM, first compound 10 µM): 95.9% | viability, T/C [9]: 100% | viability, T/C [10]: 109% | viability, T/C [11]: 109% | viability, T/C [12]: 108% | viability, T/C (second compound 0.1 µM, first compound 3.16 µM): 116% | viability, T/C (second compound 0.1 µM, first compound 10 µM): 102% | viability, T/C [15]: 96% | viability, T/C [16]: 103% | viability, T/C [17]: 102% | viability, T/C [18]: 109% | viability, T/C (second compound 0.316 µM, first compound 3.16 µM): 103% | viability, T/C (second compound 0.316 µM, first compound 10 µM): 101% | viability, T/C [21]: 105% | viability, T/C [22]: 101% | viability, T/C [23]: 95.2% | viability, T/C [24]: 107% | viability, T/C (second compound 1 µM, first compound 3.16 µM): 106% | viability, T/C (second compound 1 µM, first compound 10 µM): 92.4% | viability, T/C [27]: 110% | viability, T/C [28]: 102% | viability, T/C [29]: 104% | viability, T/C [30]: 102% | viability, T/C (second compound 3.16 µM, first compound 3.16 µM): 112% | viability, T/C (second compound 3.16 µM, first compound 10 µM): 99.3% | viability, T/C [33]: 109% | viability, T/C [34]: 102% | viability, T/C [35]: 99.6% | viability, T/C [36]: 98.3% | viability, T/C (second compound 10 µM, first compound 3.16 µM): 119% | viability, T/C (second compound 10 µM, first compound 10 µM): 85.1%

CCc1c2c(nc3ccc(O)cc13)-c1cc3c(c(=O)n1C2)COC(=O)[C@]3(O)CC + Nc1ccc(C#CCN(C(=O)Cc2ncc(C(F)(F)F)cc2C(F)(F)F)c2ccc(F)cc2)nn1
IC50 (second compound 0.0316 µM): 10.4 nM | IC50 (second compound 0.1 µM): 14.8 nM | IC50 (second compound 0.316 µM): 18.1 nM | IC50 (second compound 1 µM): 8.73 nM | IC50 (second compound 3.16 µM): 8.16 nM | IC50 (second compound 10 µM): 7.26 nM | viability, T/C [1]: 82.6% | viability, T/C [2]: 51.4% | viability, T/C [3]: 28.6% | viability, T/C [4]: 23.1% | viability, T/C [5]: 15.7% | viability, T/C [6]: 9.67% | viability, T/C [7]: 85.5% | viability, T/C [8]: 55.2% | viability, T/C [9]: 33.7% | viability, T/C [10]: 32.2% | viability, T/C [11]: 15.5% | viability, T/C [12]: 9.4% | viability, T/C [13]: 72.8% | viability, T/C [14]: 71% | viability, T/C [15]: 30.3% | viability, T/C [16]: 28.1% | viability, T/C [17]: 17.3% | viability, T/C [18]: 10.2% | viability, T/C [19]: 83.8% | viability, T/C [20]: 37.8% | viability, T/C [21]: 34% | viability, T/C [22]: 28.9% | viability, T/C [23]: 17% | viability, T/C [24]: 10.2% | viability, T/C [25]: 77.6% | viability, T/C [26]: 39.2% | viability, T/C [27]: 29.3% | viability, T/C [28]: 28.6% | viability, T/C [29]: 11.9% | viability, T/C [30]: 10.9% | viability, T/C [31]: 59.2% | viability, T/C [32]: 47.8% | viability, T/C [33]: 28.5% | viability, T/C [34]: 22.5% | viability, T/C [35]: 16.1% | viability, T/C [36]: 12.8%
